Measurements as given in US20240208992A1, “MACROCYCLES AS CFTR MODULATORS” (Idorsia Pharmaceuticals Ltd, priority 2021, published 2024).
Where two headings read alike, the source gives them in different places. Values belong to the compound of their own block, whether it stands above or below them.

Columns and labels:
[1] = the molecule shown is the open-chain precursor; amide bond; 17-membered ring; 2 steps
[2] = amide bond
[3] = amide bond, 17-membered ring
human F508del-CFTR = human F508del-CFTR (Homo sapiens, UniProt P13569, DEL508-508); experiment: F508del-CFTR cell surface expression (corrector activity), DiscoveRx ß-galactosidase complementation chemiluminescence assay in recombinant U2OS cell line; conditions: for EC50: EC50, F508del-CFTR cell surface expression; for Emax: U2OS;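 as to all read-outs here: U2OS cells co-expressing ProLink-tagged F508del-CFTR and a membrane-anchored enzyme acceptor, where more surface CFTR restores β-galactosidase activity measured by chemiluminescence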
[4] = U2OS cells, 16h compound incubation, geomean of several measurements
[5] = in relation to the Emax of the corrector lumacaftor (=100%), U2OS cells, 16h compound incubation, arithmetic mean

Chain of human F508del-CFTR (P13569 with tags, fused parts or gaps DEL508-508): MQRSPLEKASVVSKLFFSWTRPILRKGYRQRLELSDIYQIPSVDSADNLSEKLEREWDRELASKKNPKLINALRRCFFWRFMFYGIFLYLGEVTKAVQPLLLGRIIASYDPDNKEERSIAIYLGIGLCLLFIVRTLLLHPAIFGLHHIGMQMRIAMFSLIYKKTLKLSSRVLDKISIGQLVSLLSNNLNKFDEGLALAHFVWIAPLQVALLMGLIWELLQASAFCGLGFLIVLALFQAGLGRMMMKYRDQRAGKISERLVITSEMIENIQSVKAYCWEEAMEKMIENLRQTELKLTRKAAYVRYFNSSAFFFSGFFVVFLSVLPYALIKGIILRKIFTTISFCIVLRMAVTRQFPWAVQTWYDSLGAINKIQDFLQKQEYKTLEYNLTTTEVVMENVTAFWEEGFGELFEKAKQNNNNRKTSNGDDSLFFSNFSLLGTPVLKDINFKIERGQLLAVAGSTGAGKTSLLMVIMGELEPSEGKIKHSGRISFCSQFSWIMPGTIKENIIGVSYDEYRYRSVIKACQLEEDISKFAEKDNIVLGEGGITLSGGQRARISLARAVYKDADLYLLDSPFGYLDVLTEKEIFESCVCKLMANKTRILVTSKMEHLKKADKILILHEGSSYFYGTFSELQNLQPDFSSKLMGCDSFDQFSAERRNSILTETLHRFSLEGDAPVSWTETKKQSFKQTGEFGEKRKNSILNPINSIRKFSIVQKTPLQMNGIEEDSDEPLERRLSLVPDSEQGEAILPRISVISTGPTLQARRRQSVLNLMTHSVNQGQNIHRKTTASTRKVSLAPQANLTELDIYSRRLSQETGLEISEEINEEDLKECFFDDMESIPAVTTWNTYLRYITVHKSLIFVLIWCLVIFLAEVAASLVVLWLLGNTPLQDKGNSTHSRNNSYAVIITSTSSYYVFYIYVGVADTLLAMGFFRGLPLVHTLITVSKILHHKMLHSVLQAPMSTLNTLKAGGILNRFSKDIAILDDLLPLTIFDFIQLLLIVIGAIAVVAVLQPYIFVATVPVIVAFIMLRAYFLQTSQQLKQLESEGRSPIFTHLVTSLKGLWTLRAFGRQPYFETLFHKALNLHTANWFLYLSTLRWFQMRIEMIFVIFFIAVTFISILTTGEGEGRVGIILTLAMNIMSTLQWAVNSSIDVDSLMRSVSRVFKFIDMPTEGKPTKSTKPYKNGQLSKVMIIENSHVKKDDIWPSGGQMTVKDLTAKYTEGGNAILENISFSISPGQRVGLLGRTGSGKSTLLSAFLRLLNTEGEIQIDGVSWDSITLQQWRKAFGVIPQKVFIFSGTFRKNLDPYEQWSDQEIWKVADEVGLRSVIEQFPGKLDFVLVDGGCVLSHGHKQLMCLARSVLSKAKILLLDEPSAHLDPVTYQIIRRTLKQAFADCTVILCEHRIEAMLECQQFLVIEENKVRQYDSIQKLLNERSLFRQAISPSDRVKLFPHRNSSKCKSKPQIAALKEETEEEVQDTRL

Compound: CC(C)C[C@@H](C(=O)N1CCCC[C@@H]1C(=O)N[C@@H](COc1cnc2ccccc2c1C(=O)N[C@@H](CC(=O)OC(C)(C)C)C(=O)OCc1ccccc1)Cc1ccccc1)N(C)C(=O)OC(C)(C)C
- ring closure, isolated yield [1]: 58%

Compound: CC(C)C[C@H]1C(=O)N(CCC(C)(C)C)CC(=O)N[C@H](Cc2ccccc2)COc2cc3c(cc2C(=O)N[C@H](C(=O)O)CC(=O)N1C)OCO3
- ring closure, yield of all isomers ([2]; from CN[C@@H](CC(C)C)C(=O)N(CCC(C)(C)C)CC(=O)N[C@@H](COc1cc2c(cc1C(=O)N[C@@H](CC(=O)O)C(=O)O)OCO2)Cc1ccccc1, pentafluorophenyl diphenylphosphinate (FDPP), DMF/DCM, 67.5 mM, 5.0 h, 11 steps): 26%

Compound: CC(C)C[C@H]1C(=O)N(C[C@H]2COc3ccccc3C2)CC(=O)N[C@H](Cc2ccccc2)COc2ccc3ccccc3c2C(=O)N[C@H](C(=O)NCCc2ccc3c(c2)OCO3)CC(=O)N1C
- ring closure, yield after HPLC ([3]; from CN[C@@H](CC(C)C)C(=O)N(CC(=O)N[C@@H](COc1ccc2ccccc2c1C(=O)N[C@@H](CC(=O)O)C(=O)NCCc1ccc2c(c1)OCO2)Cc1ccccc1)C[C@H]1COc2ccccc2C1, HATU/DIEA, DMF, 82.0 mM, 25.0 °C): 97%

Compound: COc1cc2c(cc1OC)C(=O)N[C@H](C(=O)OCc1ccccc1)CC(=O)N(C)[C@@H](CC1CC1)C(=O)N(CCC1CCCCC1)CC(=O)N[C@H](Cc1ccccc1)CO2
- ring closure, yield of all isomers ([2]; from CN[C@@H](CC1CC1)C(=O)N(CCC1CCCCC1)CC(=O)N[C@@H](COc1cc(OC)c(OC)cc1C(=O)N[C@@H](CC(=O)O)C(=O)OCc1ccccc1)Cc1ccccc1, FDPP, DCM, 50.0 °C, 12.0 h): 13%
- ring closure, yield after HPLC ([3]; from CN[C@@H](CC1CC1)C(=O)N(CCC1CCCCC1)CC(=O)N[C@@H](COc1cc(OC)c(OC)cc1C(=O)N[C@@H](CC(=O)O)C(=O)OCc1ccccc1)Cc1ccccc1, FDPP, DCM, 50.0 °C): 13%

Compound: COc1nccc2c1C(=O)N[C@H](C(=O)NCCc1nc(C3CC3)no1)CC(=O)N(C)[C@@H](CC(C)C)C(=O)N(C)C(COCc1ccccc1)C(=O)N[C@H](Cc1ccccc1)CO2 (stereo partly shown)
- ring closure, yield after HPLC ([3]; from CN[C@@H](CC(C)C)C(=O)N(C)C(COCc1ccccc1)C(=O)N[C@@H](COc1ccnc(OC)c1C(=O)N[C@@H](CC(=O)O)C(=O)NCCc1nc(C2CC2)no1)Cc1ccccc1, HATU/DIEA, DMF, 60.0 mM): 82%

Compound: COc1cccc(CCNC(=O)[C@@H]2CC(=O)N(C)[C@@H](CC(C)C)C(=O)N(C)[C@H](COCc3ccccc3)C(=O)N[C@H](Cc3ccccc3)COc3ccc4ccccc4c3C(=O)N2)c1 [Example 713, (3S,7S,10R,13R)-13-benzyl-10-((benzyloxy)methyl)-7-isobutyl-N-(3-methoxyphenethyl)-6,9-dimethyl-1,5,8,11-tetraoxo-1,2,3,4,5,6,7,8,9,10,11,12,13,14-tetradecahydronaphtho[1,2-p][1]oxa[4,7,10,14]tetraazacycloheptadecine-3-carboxamide]
- ring closure, yield after HPLC ([3]; from CN[C@@H](CC(C)C)C(=O)N(C)[C@H](COCc1ccccc1)C(=O)N[C@@H](COc1ccc2ccccc2c1C(=O)N[C@@H](CC(=O)O)C(=O)NCCc1cccc(OC)c1)Cc1ccccc1, HATU/DIEA, DMF, 41.0 mM, 25.0 °C): 82%
- EC50 (human F508del-CFTR; U2OS cells, 16h compound incubation, geomean values): 31 nM
- Emax (human F508del-CFTR; in relation to Emax of corrector lumacaftor (=100%), arithmetic mean values): 432%

- EC50 (human F508del-CFTR; [4]): 133 nM
- Emax (human F508del-CFTR; [5]): 448%
Compound: COc1cc(CCNC(=O)[C@@H]2CC(=O)N(C)[C@@H](CC(C)C)C(=O)N(C)[C@H](Cc3nc(C(F)(F)F)no3)C(=O)N[C@H](Cc3ccccc3)COc3c[n+]([O-])c4ccc(F)cc4c3C(=O)N2)on1 [Example 981, (3S,7S,10R,13R)-13-benzyl-20-fluoro-7-isobutyl-3-((2-(3-methoxyisoxazol-5-yl)ethyl)carbamoyl)-6,9-dimethyl-1,5,8,11-tetraoxo-10-((3-(trifluoromethyl)-1,2,4-oxadiazol-5-yl)methyl)-1,2,3,4,5,6,7,8,9,10,11,12,13,14-tetradecahydro-[1]oxa[4,7,10,14]tetraazacycloheptadecino[17,16-c]quinoline 17-oxide]

- EC50 (human F508del-CFTR; [4]): 236 nM
- Emax (human F508del-CFTR; [5]): 530%
Compound: COc1cc(CCNC(=O)[C@@H]2CC(=O)N(C)[C@@H](CC(C)C)C(=O)N(C)[C@H](Cc3nc(C(F)(F)F)no3)C(=O)N[C@H](Cc3ccccc3)COc3cc(C)c4c(ccc[n+]4[O-])c3C(=O)N2)on1 [Example 982, (3S,7S,10R,13R)-13-benzyl-7-isobutyl-3-((2-(3-methoxyisoxazol-5-yl)ethyl)carbamoyl)-6,9,17-trimethyl-1,5,8,11-tetraoxo-10-((3-(trifluoromethyl)-1,2,4-oxadiazol-5-yl)methyl)-1,2,3,4,5,6,7,8,9,10,11,12,13,14-tetradecahydro-[1]oxa[4,7,10,14]tetraazacycloheptadecino[16,17-f]quinoline 18-oxide]

- EC50 (human F508del-CFTR; [4]): 270 nM
- Emax (human F508del-CFTR; [5]): 506%
Compound: COc1noc(CCNC(=O)[C@@H]2CC(=O)N(C)[C@@H](CC(C)C)C(=O)N(C)[C@H](Cc3nc(C(F)(F)F)no3)C(=O)N[C@H](Cc3ccccc3)COc3ccc4c(cc(F)c[n+]4[O-])c3C(=O)N2)n1 [Example 983, (3S,7S,10R,13R)-13-benzyl-20-fluoro-7-isobutyl-3-((2-(3-methoxy-1,2,4-oxadiazol-5-yl)ethyl)carbamoyl)-6,9-dimethyl-1,5,8,11-tetraoxo-10-((3-(trifluoromethyl)-1,2,4-oxadiazol-5-yl)methyl)-1,2,3,4,5,6,7,8,9,10,11,12,13,14-tetradecahydro-[1]oxa[4,7,10,14]tetraazacycloheptadecino[16,17-f]quinoline 18-oxide]

Compound: (7R,13S,17S)-7-Benzyl-11-(3,3-dimethylbutyl)-13-isobutyl-14-methyl-9,12,15,19-tetraoxo-6,7,8,9,10,11,12,13,14,15,16,17,18,19-tetradecahydro-[1,3]dioxolo[4′,5′:4,5]benzo[1,2-p][1]oxa[4,7,10,14]tetraazacycloheptadecine-17-carboxylic acid
- ring closure, yield after HPLC ([3]; FDPP, DMF/DCM, resin, 67.5 mM, with chain assembly): 26%
